Experimental data: US20250197420A1, “MACROCYCLIC COMPOUNDS, COMPOSITIONS, AND METHODS OF USING THEREOF” (Sionna Therapeutics Inc., priority 2022, published 2025)

Legend:
[1] = molecular target: T1, Purified recombinant NBD1 (Homo sapiens, UniProt P13569); experiment: Aggregation analysis using differential static light scattering (DSLS): thermal stability of NBD1; type: binding; conditions: NBD1 0.2 mg/ml; Tagg of compound well minus average Tagg of DMSO control wells
T1 construct: Purified recombinant NBD1 was produced using previously described methods; made in house
Procedure: Purified recombinant NBD1 was produced using previously described methods (A. Schmidt, J. L. Mendoza, P. J. Thomas (2011) Biochemical and Biophysical Approaches to Probe CFTR Structure (365-376) M. D. Amaral, K. Kunzelmann (eds.), Cystic Fibrosis, Methods in Molecular Biology 741, Springer Science+Business Media). The effect of test compounds on thermal stability of NBD1 was evaluated by differential static light scattering (DSLS) using the Harbinger Stargazer-384 instrument (Epiphyte Three, Toronto, Canada). Test compounds were dissolved and diluted to desired concentrations in 100% DMSO. The compounds or DMSO controls (100 nL) were stamped into wells of a […] low volume optical plate (Corning Inc., Corning, NY) using the Echo 555 acoustic liquid handler (Labcyte Inc., San Jose, CA).
NBD1 protein was diluted to 0.2 mg/ml in S200 buffer (50 mM Tris-HCl, 150 mM NaCl, 5 mM MgCl2, 2 mM ATP, 2 mM DTT, pH7.6) containing 1% glycerol. 10 uL of protein solution was aliquoted into the 384-well plate harboring the test compounds and 10 uL mineral oil was overlaid onto the protein solution, using the epMotion robotic liquid handler (Eppendorf North America, Hauppauge, NY). After placing into the Stargazer instrument, the plate was heated at 1° C. per minute to 70° C. Images were captured from 25° C. to 70° C. every 0.5° C. At the end of the experiment run, instrument software integrated image files and analyzed data automatically. A […] regression curve was generated for each well, representing the increase in light scattering over time. A temperature of aggregation (Tagg) was calculated based on the inflection point of the curve. To better compare data across experiments the average Tagg for DMSO control wells was calculated and subtracted from values for wells containing compounds to obtain a “ΔTagg” value. These ΔTagg values reflect stabilizing efficacy of the compounds. As set forth in Table 2 below, an ΔTagg value less than or equal to 5° C. is marked “A”; a value above 5° C. and less than or equal to 10° C. is marked “B”; a value greater than 10° C. and less than or equal to 25° C. is marked “C”.

[2] = tested on: Primary human bronchial epithelial cells from a ΔF508 homozygous CF donor (CF-HBE cells); experiment: TECC24 recording of CFTR-mediated transepithelial chloride transport, AUC fold over benchmark VX-809 @10 μM; type: cell-based; conditions: 48 hours incubation, AUC of forskolin-stimulated IEQ
Procedure: The effects of a test agent on CFTR-mediated transepithelial chloride transport is measured using TECC24 recording analysis. Test agents are solubilized in DMSO. Solubilized test agents are mixed with incubation medium containing DMEM/F12, Ultroser G (0.5%; Crescent Chemical, catalog #67042), Hyclone Fetal Clone II (2%; GE Healthcare, catalog #SH30066.02), bovine brain extract (0.25%; Lonza, catalog #CC-4098), insulin ([…]), IL-13 (10 ng/mL), hydrocortisone (20 nM), transferrin ([…]), triiodothyronine (500 nM), ethanolamine (250 nM), epinephrine (1.5 μM), phosphoethanolamine (250 nM), and retinoic acid (10 nM). Primary human bronchial epithelial cells from a ΔF508 homozygous CF donor (CF-HBE cells; from University of North Carolina Cystic Fibrosis Tissue Procurement Center), grown on Transwell HTS 24-well cell culture inserts (Costar, catalog #3378), are exposed to test agents or controls dissolved in incubation medium. The CF-HBE cells are cultured at 36.5° C. for 48 hours before TECC24 recordings are performed in the presence or absence of test agent, a positive control or vehicle (DMSO).
Following incubation, the transwell cell culture inserts containing the test agent or control-treated CF-HBE cells are loaded onto a TECC24 apparatus (TECC v7 or MTECC v2; EP Design) to record the transepithelial voltage (VT) and resistance (TEER) using 4 AgCl electrodes per well configured in current-clamp mode. The apical and basolateral bath solutions both contain (in mM) 140 NaCl, 5 KCl, 2 CaCl2), 1 MgCl2, 10 Hepes, and 10 glucose (adjusted to pH 7.4 with NaOH). To inhibit basal Na+ absorption, the ENaC inhibitor benzamil (10 μM) is added to the bath. Then, the adenylate cyclase activator, forskolin (10 μM), is added to the bath to activate CFTR. The forskolin-stimulated Cl− transport is halted by addition of CFTR inhibitor-172 (20 μM) to the bath at the end of the experiment to confirm specificity. VT and TEER recordings are digitally acquired at routine intervals using TECC or MTECC software (EP Design). VT and TEER are transformed into equivalent transepithelial Cl− current (IEQ), and the Area Under the Curve (AUC) of the IEQ time course between forskolin and CFTR inhibitor-172 addition is generated using Excel (Microsoft). Efficacy is expressed as the ratio of the test agent AUC divided by vehicle AUC. EC50s based on AUC are generated using the non-linear regression log(agonist) vs. response function in Prism software (Graphpad) with HillSlope fixed=1.
If a test agent increases the AUC of the forskolin-stimulated IEQ relative to VX-809 in CF-HBE cells, and this increase is inhibited by CFTR inhibitor-172, then the test agent is considered a CFTR corrector. TECC assay efficacy is expressed as the ratio of the test agent AUC divided by VX-809 AUC. As set forth in Table 2 below, a TECC value less than 3 is marked “A”; a value between 3 and 6 is marked “B”; a value between 6 and 20 is marked “C”.

T1 sequence (P13569 423-646 limits assumed): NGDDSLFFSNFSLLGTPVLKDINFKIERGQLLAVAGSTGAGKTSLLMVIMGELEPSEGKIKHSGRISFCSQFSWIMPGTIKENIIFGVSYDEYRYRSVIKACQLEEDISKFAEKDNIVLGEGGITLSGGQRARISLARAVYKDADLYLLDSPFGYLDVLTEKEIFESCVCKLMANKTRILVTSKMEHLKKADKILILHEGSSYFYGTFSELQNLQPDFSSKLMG

| Compound | DSLS (ΔTagg) [1] | TECC (test agent AUC divided by VX-809 AUC) [2] |
| --- | --- | --- |
| CN1CC(C)(C)COCC(C)(c2cccc(CCC(=O)O)c2)c2cnc([nH]2)-c2cc(ccc2F)Oc2c(F)cc3[nH]ccc3c2CCC1=O (single isomer, unassigned) [Compound 20B, 3-[3-(23,29-Difluoro-6,10,10,12-tetramethyl-13-oxo-8,25-dioxa-3,12,20,31-tetrazapentacyclo[24.3.1.12,5.016,24.017,21]hentriaconta-1(30),2,4,16,18,21,23,26,28-nonaen-6-yl)phenyl]propanoic acid] | A (an ΔTagg value less than or equal to 5 °C is marked “A”) | A (a TECC value less than 3 is marked “A”) |
| CN1CC(C)(C)COCC(C)(c2cccc(CCC(=O)O)c2)c2cnc([nH]2)-c2cc(ccc2F)Oc2c(F)cc3[nH]ccc3c2CCC1=O (single isomer, unassigned) [Compound 20C, 3-[3-(23,29-Difluoro-6,10,10,12-tetramethyl-13-oxo-8,25-dioxa-3,12,20,31-tetrazapentacyclo[24.3.1.12,5.016,24.017,21]hentriaconta-1(30),2,4,16,18,21,23,26,28-nonaen-6-yl)phenyl]propanoic acid] | C (a value greater than 10 °C and less than or equal to 25 °C is marked “C”) | C (a value between 6 and 20 is marked “C”) |
| CC1(C)CCCC(C)(c2cccc(CCC(=O)O)c2)c2cnc([nH]2)-c2cc(ccc2F)Oc2c(F)cc3[nH]ccc3c2CCC(=O)NC1 (single isomer, unassigned) [Compound 40A, 3-[3-(23,29-difluoro-6,10,10-trimethyl-13-oxo-25-oxa-3,12,20,31-tetrazapentacyclo-[24.3.1.12,5.016,24.017,21]hentriaconta-1(30),2,4,16,18,21,23,26,28-nonaen-6-yl)phenyl]propanoic acid] | A (an ΔTagg value less than or equal to 5 °C is marked “A”) | A (a TECC value less than 3 is marked “A”) |
| CC1(C)CCCC(C)(c2cccc(CCC(=O)O)c2)c2cnc([nH]2)-c2cc(ccc2F)Oc2c(F)cc3[nH]ccc3c2CCC(=O)NC1 (single isomer, unassigned) [Compound 40B, 3-[3-(23,29-difluoro-6,10,10-trimethyl-13-oxo-25-oxa-3,12,20,31-tetrazapentacyclo-[24.3.1.12,5.016,24.017,21]hentriaconta-1(30),2,4,16,18,21,23,26,28-nonaen-6-yl)phenyl]propanoic acid] | C (a value greater than 10 °C and less than or equal to 25 °C is marked “C”) | B (a value between 3 and 6 is marked “B”) |
| CC1(C)CCCCC(C)(c2cccc(CCC(=O)O)c2)c2cnc([nH]2)-c2cc(ccc2F)Oc2c(F)cc3[nH]ccc3c2CCC(=O)NC1 (single isomer, unassigned) [Compound 46A, 3-[3-(24,30-difluoro-6,11,11-trimethyl-14-oxo-26-oxa-3,13,21,32-tetrazapentacyclo[25.3.1.12,5.017,25.018,22]dotriaconta-1(30),2,4,17(25),18(22),19,23,27(31),28-nonaen-6-yl)phenyl]propanoic acid] | A (an ΔTagg value less than or equal to 5 °C is marked “A”) | A (a TECC value less than 3 is marked “A”) |
| CC1(C)CCCCC(C)(c2cccc(CCC(=O)O)c2)c2cnc([nH]2)-c2cc(ccc2F)Oc2c(F)cc3[nH]ccc3c2CCC(=O)NC1 (single isomer, unassigned) [Compound 46B, 3-[3-(24,30-difluoro-6,11,11-trimethyl-14-oxo-26-oxa-3,13,21,32-tetrazapentacyclo[25.3.1.12,5.017,25.018,22]dotriaconta-1(30),2,4,17(25),18(22),19,23,27(31),28-nonaen-6-yl)phenyl]propanoic acid] | C (a value greater than 10 °C and less than or equal to 25 °C is marked “C”) | A (a TECC value less than 3 is marked “A”) |
